Measured values: patent US20100184638A1, “Galanin Receptors and Brain Injury” (NeuroTargets, Ltd., priority 2004, published 2010)
Non-standard residues stand in square brackets, D forms with d. Residues, ends and D or L forms follow the SMILES beside them. *: point of attachment. Fmoc = O=C(OCC1c2ccccc2-c2ccccc21)*; Cha = N[C@@H](CC1CCCCC1)C(=O)O; AMC = Cc1cc(=O)oc2cc(N*)ccc12

Tests used:
[1] = tested on: organotypic hippocampal cultures; assay: Staurosporine-induced cell death in organotypic hippocampal cultures (propidium iodide); type: cell-based, mouse; conditions: for percentage cell death: n=4
Description: Organotypic cultures were prepared as previously described (Elliott-Hunt et al. (2002) J. Neurochem. 80 416-425; Stoppini et al. (1991) J. Neurosci. Methods 37 173-182). Briefly, the hippocampi from 5-6 day old pups were rapidly removed under a dissection microscope and sectioned transversely at 400 μm using a McIlwain tissue chopper (Mickle Laboratory Engineering Co. Ltd., Gomshall, UK). The slices were cultured in 95% air and 5% CO2 at 37° C. on a microporous transmembrane biopore membrane (Millipore, Poole, UK), in a 6-well plate, in 50% minimal essential medium with Earle's Salts (Gibco BRL, Paisley, UK) without L-glutamine, […] Hanks Balanced Salt Solution (Gibco BRL), 25% Horse Serum (heat inactivated; Harlan Serum Labs, Loughborough, UK), 5 mg/ml glucose (Sigma Chemical Co., Poole, UK) and […] glutamine (Sigma).
Fourteen day organotypic hippocampal cultures were placed in 0.1% BSA with serum free media for 16 hours before incubation with varying concentrations of glutamic acid for 3 hours or staurosporine for 9 hours. Staurosporine and glutamate are both known to cause excitotoxic damage to such cell cultures (Prehn et al. (1997) J. Neurochem. 68 1679-1685; Ohmori et al. (1996) Brain Res. 743 109-115). Cultures were washed with serum-free medium and incubated for a further 24 hours before imaging. Regional patterns of neuronal injury in the organotypic cultures were observed by performing experiments in the presence of propidium iodide. After membrane injury, the dye enters cells, binds to nucleic acids and accumulates, rendering the cell brightly fluorescent (Vornov et al. (1994) Stroke 25 457-465). […] Neuronal damage in the area encompassing the CA1 region was assessed using the density slice function in NIH Image software (Scion Image, MD, USA) to establish signal above background. The area of the subfields expressing the exclusion dye propidium iodide was measured, and expressed as a percentage of the total area of the subfields as assessed in the bright field image. Furthermore, for consistency in setting the parameters accurately when using the density slice function, the threshold was set against a positive control set of cultures exposed to 10 mM glutamate.
(SEQ ID NO: 1) (AstraZeneca, Montreal, Quebec, Canada), amyloid-β (1-42) (Aβ (1-42)) and the reverse Aβ (42-1) peptide (American Peptide Company, Sunnyvale, Calif. 93906). Before use in the experiments below, the Aβ (1-42) was induced to form fibrils by pre-incubation in culture medium. Specifically, 0.45 mg of Aβ peptide was dissolved in 20 μl of dimethyl sulfoxide (DMSO-Sigma) and diluted to a 100-μM stock solution in medium, which was then incubated with gentle shaking at room temperature for 24 hours.
To further dissect the neuroprotective role played by galanin in a more tractable in vitro system, both primary dispersed and organotypic hippocampal cultures (Elliott-Hunt, 2002) were used. These two techniques are complimentary since the dispersed hippocampal cultures ensure that observed effects are neuron-specific, whilst the organotypic cultures preserve the synaptic and anatomical organisation of the neuronal circuitry (Elliott-Hunt, 2002) as well as retaining many of the functional characteristics found in vivo (Adamschik et al. (2000) Brain Res. Prot. 5 153-158). The effects of staurosporine and glutamate on neuronal cell death in hippocampal cultures (Prehn, 1997; Ohmori, 1996) were studied. Cell death was visualised by propidium iodide staining. Results are expressed as a percentage of the area expressing fluorescence as compared with the untreated “control” cultures.

GALR2 = conditions: cited from earlier work
GALR1 and GALR2 = conditions: cited from earlier work
[2] = tested on: organotypic hippocampal cultures; assay: Glutamate-induced cell death in organotypic hippocampal cultures (propidium iodide); type: cell-based, mouse; conditions: 4 mM glutamate, 9 hour exposure, n=4
Description: Organotypic cultures were prepared as previously described (Elliott-Hunt et al. (2002) J. Neurochem. 80 416-425; Stoppini et al. (1991) J. Neurosci. Methods 37 173-182). Briefly, the hippocampi from 5-6 day old pups were rapidly removed under a dissection microscope and sectioned transversely at 400 μm using a McIlwain tissue chopper (Mickle Laboratory Engineering Co. Ltd., Gomshall, UK). […]
Staurosporine and glutamate are both known to cause excitotoxic damage to such cell cultures (Prehn et al. (1997) J. Neurochem. 68 1679-1685; Ohmori et al. (1996) Brain Res. 743 109-115). […] Neuronal damage in the area encompassing the CA1 region was assessed using the density slice function in NIH Image software (Scion Image, MD, USA) to establish signal above background. The area of the subfields expressing the exclusion dye propidium iodide was measured, and expressed as a percentage of the total area of the subfields as assessed in the bright field image. […]
To further dissect the neuroprotective role played by galanin in a more tractable in vitro system, both primary dispersed and organotypic hippocampal cultures (Elliott-Hunt, 2002) were used. […] Results are expressed as a percentage of the area expressing fluorescence as compared with the untreated “control” cultures.

## WTLNSAGYLL [AR-M1896]
[1]; 100 nM AR-M1896 co-administered with 100 nM staurosporine, wild-type organotypic cultures, p<0.05
  cell death: significantly reduced the amount of cell death
[1]; galanin knockout organotypic cultures versus wild-type cultures (data not shown)
  reduction of staurosporine-induced cell death: as effective
[1]; organotypic or primary cultures, no staurosporine
  effect in the absence of staurosporine: No significant effects
GALR2
  binding specificity for GALR2 compared to GALR1: 500 fold

## Cc1cc(=O)oc2cc(NC(=O)[C@H](CCCCN)NC(=O)[C@H](CC3CCCCC3)NC(=O)OCC3c4ccccc4-c4ccccc43)ccc12 [Galnon] (Fmoc-[Cha]-Lys-{AMC})
GALR1 and GALR2
  activation of other GPCR receptors including the neurotensin receptor: also activates a number of other GPCR receptors
  agonistic activity at GALR1 and GALR2: equally activates and has agonistic activity to both GALR1 and GALR2

## N[C@@H](CCC(=O)O)C(=O)O [glutamate, L-glutamic acid]
[2]; galanin knockout organotypic cultures
  percentage cell death: 85±8.6%
[2]; wild-type organotypic cultures
  percentage cell death: 61±9.3%

## CN[C@@H]1C[C@H]2O[C@@](C)([C@@H]1OC)n1c3ccccc3c3c4c(c5c6ccccc6n2c5c31)C(=O)NC4 [Staurosporine, staurosporine]
[1]; 100 nM staurosporine, galanin knockout organotypic cultures
  percentage cell death: 65±10%
[1]; 100 nM staurosporine, wild-type organotypic cultures
  percentage cell death: 40±26%
[1]; 1 μM staurosporine, galanin knockout organotypic cultures
  percentage cell death: 68±0.5%
[1]; 1 μM staurosporine, wild-type organotypic cultures
  percentage cell death: 38±8%
